Results from US20230398205A1, “SARS-COV-2 IMMU[…] CONSTRUCTS AND USES THEREOF” (TScan Therapeutics, Inc., priority 2020, published 2023).
Like-named read-outs stand apart in the source and are kept apart here. Where no end group is shown, it is not given here.

Assays:
Type in all cases: cell-based, human
[1] = tested on: memory CD8 T cells from convalescent COVID-19 patients
[2] = tested on: memory CD8+ T cells specific for A*02:01 epitopes; settings: Allele A02
[3] = tested on: naïve CD8 T cells isolated from healthy donors; settings: 10 days of expansion; tetramer staining; FIG. 14, FIG. 15

Sequence | % of Pts (Screen M+ 2SD) ([1]; Allele A01) | % of Pts (Tetramer) [2] | other results
DTDFVNEFY [DTD] | 40% | – | –
LLLDRLNQL [LLL] | – | 22.2% | % of Pts (Screen M+ 2SD) ([1]; Allele A02): 33.3%
LLYDANYFL [LLY] | – | 55.6% | –
NTCDGTTFTY [NTC] | 60% | – | –
YLQPRTFLL [YLQ] | – | – | expansion of peptide-specific T cells from the naïve T cell population [3]: induces an expansion of peptide-specific T cells
